Format in all cases: cell-based, male Sprague-Dawley rat
In test [1] the test system is NHSC (non-induced hepatic stellate cells). Nature of the test: Oil red O staining of lipid droplets. Conditions: curcumin 25 μM, 12 and 24 h, compared to BL extract treated cells. The method, then: (§1) Non-induced hepatic stellate cells (NHSC, purity >95%) were isolated from male Sprague-Dawley rat liver, and Thioacetamide (TAA; Fluka Chemie GmbH, Buchs, Switzerland)-induced hepatic stellate cells (THSC, purity >95%) were isolated from TAA-induced fibrotic liver of male Sprague-Dawley rat (Chang et al., 2009). Both cells were maintained in complete DMEM containing 10% heat-inactivated FBS and 1% penicillin/streptomycin. NHSC and THSC cells (1×10^5 cells) were seeded in 6 well plates and incubated at 37° C. overnight. Then, cells were treated with various concentrations of BL extract (100, 250, and 500 μg/ml) or curcumin (25 μM) for 12 and 24 h. Cells were washed twice with PBS and fixed with pre-warmed 3.7% paraformaldehyde for 10 min. Cells were then stained with diluted Oil red O stock solution 0.5% (w/v) in isopropanol (Fluka; buffer/water=3/2) at room temperature for 1 h under the dark. Cells were washed with 50% isopropanol and counter-stained with Hematoxylin (Sigma-Aldrich) for 1 min. Results were photographed using Olympus CKX-41 (Olympus Corporation, Tokyo, Japan). Two kinds of hepatic stellate cells were used; that is, Non-chemical induced hepatic stellate cells (NHSC), and thioacetamide-induced hepatic stellate cells (THSC) for imitating a naturally-occurred activated HSC. […]

The subject of test [2] is THSC (thioacetamide-induced hepatic stellate cells). Kind of test: Oil red O staining of lipid droplets. The conditions noted are these: curcumin 25 μM, 12 and 24 h, compared to BL extract treated cells. On the procedure: as §1
The next test concerns NHSC. Kind of test: Western blotting of protein expression levels. The conditions noted are these: curcumin 25 μM. On the procedure: (§2) Non-induced hepatic stellate cells (NHSC, purity >95%) were isolated from male Sprague-Dawley rat liver, and Thioacetamide (TAA; Fluka Chemie GmbH, Buchs, Switzerland)-induced hepatic stellate cells (THSC, purity >95%) were isolated from TAA-induced fibrotic liver of male Sprague-Dawley rat (Chang et al., 2009). Both cells were maintained in complete DMEM containing 10% heat-inactivated FBS and 1% penicillin/streptomycin. NHSC and THSC (5×10^5 cells) were seeded in 6 cm dish and grown till 80% confluence, and then incubated with various concentrations of BL extract (100, 250, and 500 μg/ml) or curcumin (25 μM) for 12 and 24 h. Cells were collected and lysed with RIPA buffer (150 mM NaCl, 0.1% Triton X-100, 0.5% sodium deoxycholate, 0.1% SDS, 50 mM Tris-HCl, pH 8.0). Protease inhibitor (Roche Applied Science, Mannheim, Germany) containing pancreas extract, thermolysin, chymotrypsin, trypsin, and papain was mixed with 50 ml RIPA buffer before use. Protein samples (30 μg/well) were loaded and separated with SDS-PAGE, and then transferred to PVDF membrane (PerkinElmer, Turku, Finland). The membrane was blocked with 5% non-fat milk in TBST (20 mM Tris-HCl, pH 7.4, 137 mM NaCl, and 0.05% Tween-20) at room temperature for 1 h. The membranes were incubated with primary antibodies (Table 1) at 4° C. overnight. The membranes were washed 3 times with TBST and then incubated with horseradish peroxidase (HRP)-conjugated secondary antibodies at room temperature for 1 h. Following incubation with HRP-conjugated secondary antibodies, membranes were treated with ECL reagents (PerkinElmer) for 1 min, and results were developed on LAS-3000 film (Fujifilm, Tokyo, Japan).

The subject of a further test is THSC. Nature of the test: Western blotting of protein expression levels. Conditions: curcumin 25 μM. The method, then:
as §2
For orientation: Immunoblotting shows a protein as a band on a membrane.

Test [3] deals with MMP2. Kind of test: MMP2 level (gelatin zymography) in NHSC. The conditions noted are these: curcumin 25 μM. On the procedure: (§3) Protein expression level was determined by western blotting and normalized with β-actin. Data are normalized to normal control (N) and expressed as mean±SEM in triplicate determinations. a, vs. N; b, vs. Cur. *, p<0.05; **, p<0.01; ***, p<0.001. Non-induced hepatic stellate cells (NHSC, purity >95%) were isolated from male Sprague-Dawley rat liver, and Thioacetamide (TAA; Fluka Chemie GmbH, Buchs, Switzerland)-induced hepatic stellate cells (THSC, purity >95%) were isolated from TAA-induced fibrotic liver of male Sprague-Dawley rat (Chang et al., 2009). Both cells were maintained in complete DMEM containing 10% heat-inactivated FBS and 1% penicillin/streptomycin. The activity of MMP2 was assayed by gelatine zymography, which can detect the active form and latent form of MMP2. NHSC and THSC (2×10^5 cells) were seeded in 6 well plates and incubated for 70 to 80% confluence. Cells were starved in DMEM containing 0.1% BSA for 6 h, and then treated with various concentrations of BL extract (100, 250, and 500 μg/ml) or curcumin (25 μM) for 12 and 24 h. Media were collected and centrifuged at 12,000×g for 30 min at 4° C. The supernatants were collected and protein concentration was quantified by Bradford dye (Bio-Rad). 8% SDS-PAGE gels were prepared containing 10% gelatin. […] Gels were scanned using Epson scanner and quantified using multi-gauge software (Fujifilm).

Test [4] deals with MMP2. Nature of the test: MMP2 level (gelatin zymography) in THSC. The conditions noted are these: curcumin 25 μM, except 24 h treatment. The method, then:
as §3

As for `COc1cc(/C=C/C(=O)CC(=O)/C=C/c2ccc(O)c(OC)c2)ccc1O` [curcumin], the “lipid droplets (Oil red O)” value in test [1] and in test [2] was “Fewer lipid droplets were increased” in each case. Further, the “Col 1 expression level” value in the test on NHSC and in the test with THSC (except 24 h treatment) was “failed to reduce” each time. The TGF-β1 level entry in the test with NHSC and with THSC (except 24 h treatment) was “cannot reduce” each time. Moreover, the “TGF-β R1 level” value with NHSC was “significantly reduced”. Also, the α-SMA expression level result in the test with NHSC and in the test on THSC (except 24 h treatment) was “failed to reduce” throughout. The “expression level of TIMP2” value in the test with NHSC (24 h, vs normal control) is recorded as “significantly reduced”; in the test on THSC (24 h, vs normal control), “significantly reduced”. In addition, the “expression level of MMP2” value in the test with MMP2 [3] and in the test on MMP2 [4] was “can reduce” throughout.

These data come from patent publication US20150147417A1, “METHOD AND PHARMACEUTICAL COMPOSITION FOR LIVER FIBROSIS PREVENTION AND/OR TREATMENT” (National Dong Hua University, priority 2013, published 2015).
